O.O=C([O-])[C@H](O)[C@@H](O)[C@H](O)[C@H](O)CO.O=C([O-])[C@H](O)[C@@H](O)[C@H](O)[C@H](O)CO.[Ca+2]
solubility (mole fraction)
Details | in acetonitrile | in ethanol | in methanol | in n-propanol | in water
279.15 K | 4.28e-06 | 9.52e-06 | 1.15e-05 | 5.01e-06 | –
279.65 K | – | – | – | – | 0.000997
283.15 K | 4.56e-06 | 1.06e-05 | 1.26e-05 | 5.83e-06 | –
284.65 K | – | – | – | – | 0.00108
288.15 K | 5.33e-06 | 1.29e-05 | 1.46e-05 | 7.78e-06 | –
289.15 K | – | – | – | – | 0.0012
293.15 K | 7.75e-06 | 1.51e-05 | 1.77e-05 | 1.04e-05 | –
294.15 K | – | – | – | – | 0.00129
298.15 K | 1.02e-05 | 1.73e-05 | 1.95e-05 | 1.33e-05 | –
299.15 K | – | – | – | – | 0.00146
303.15 K | 1.24e-05 | 1.99e-05 | 2.34e-05 | 1.62e-05 | 0.00165
308.15 K | – | – | – | – | 0.00199
308.65 K | 1.64e-05 | 2.32e-05 | 2.65e-05 | – | –
313.15 K | – | – | – | – | 0.00227
313.65 K | 1.99e-05 | 2.75e-05 | 2.99e-05 | – | –
318.15 K | 2.39e-05 | 3.04e-05 | 3.5e-05 | – | 0.00269
323.15 K | – | – | – | – | 0.00311

From BigSolDB 2.1
